In publication PMC4259414, “HS-133, a novel fluorescent phosphatidylinositol 3-kinase inhibitor as a potential imaging and anticancer agent for targeted therapy” (Oncotarget, 2014):
Where two headings read alike, the source gives them in different places.

Assays:
[1] = test system: SkBr3 xenograft; experiment: SkBr3 tumor xenograft study; format: in vivo, BALB/c nude mice
Experimental: We examined the effects of HS-133 using athymic BALB/c nude mice implanted with the SkBr3 cells. HS-133 was injected intratumorally 2 times per week with a dose of 5 mg/kg when tumors reached an average volume of 50–100 mm^3. […] The average tumor volume of HS-133 treated mice was reduced by about 50% compared to that of control mice (Fig. 8D). To assess the general toxicity, we also measured the body weight change in tumor-bearing mice.
To establish SkBr3 tumor xenograft in mice, the SkBr3 cell line was grown in a culture, detached by trypsinization, washed and resuspended in PBS. Six-week old athymic BALB/c nude mice (Central Lab. Animal Inc. Seoul, Korea) were injected with 5 × 10^6 cells in the right flank of each mouse to initiate tumor growth. After reaching a tumor volume of 50–100 mm^3, mice were randomly divided into two groups, each having six mice. Mice in the control group were fed with a 0.2 mL vehicle (DMSO:PEG400:saline = 5:50:45) by oral gavage daily and the second group with 10 mg/kg dose of HS-133 in 0.2 mL daily for 21 days. For intratumoral administration, HS-133 was injected intratumorally with 2 times per week with a dose of 5 mg/kg when tumors reached an average volume of 50–100 mm^3. The body weight and tumor size were recorded twice per week. The tumor size was calculated by 0.5 × long axis × (short axis) ^2. Animal care and experimental procedures were conducted in accordance with the Guide for Animal Experiments by the Korean Academy of Medical Sciences, and the protocols used to this study were approved by the Institutional Animal Care and Use Committee in Inha University Hospital (Approval No. 110802-105).

[2] = test system: HUVECs; experiment: tube formation assay; format: cell-based, human; conditions: 20 h
Experimental: To examine the effect of HS-133 on angiogenesis, a capillary tube formation assay using human umbilical vein endothelial cells (HUVECs) was performed. […] Cell migration is critical for the endothelial cells to form blood vessels during angiogenesis, and is necessary for tumor growth and metastasis. Thus, we conducted a wound migration assay to study the effect of HS-133 on cell migration. […] Considering that endothelial migration and tube formation have all highly relevant properties of angiogenesis, our results illustrated that HS-133 has the ability to block angiogenesis.
A 10 mg/ml (200 μl) of Matrigel (BD Biosciences) was polymerized for 30 min at 37°C. HUVECs were suspended in M199 (2% FBS) medium containing VEGF (50 ng/ml) at a density of 2.5 × 10^5 cells/ml, and 0.2 ml of cell suspension was added to each well coated with Matrigel, together with or without the indicated concentrations of HS-133 for 20 h. The morphological changes of the cells and tubes formed were observed under a phase-contrast microscope and photographed at 200× and 400× magnification.

[3] = pharmacokinetic study in mouse; format: in vivo; conditions: plasma, ICR mice; for AUC(0-t): read-out: AUC0–24hr; for half-life: read-out: T1/2, λ (converted)
[4] = biological target: T1, PI3Kα (Homo sapiens, UniProt P42336); experiment: radiometric kinase assay ([γ-33P]-ATP), Reaction Biology Corp.; format: biochemical
T1 construct: purchased Reaction Biology Corp. (Malvern, PA), contract assay service

[5] = test system: SkBr3 cells; experiment: apoptosis: Western blotting and TUNEL assay; format: cell-based, human
From the text: Since PI3K and its downstream effectors appear to mediate anti-apoptotic signals, we examined the effect of HS-133 on apoptosis. […] We also observed that the levels of Bax, pro-apoptotic protein, were increased by HS-133 treatment in a dose-dependent manner. Furthermore, induction of apoptosis by HS-133 was confirmed by visualizing the fragmented DNA with TUNEL staining (Fig. 5B).
The cells were washed three times with ice-cold PBS before lysis, and were lysed with a buffer containing 1% Triton X-100, 1% Nonidet P-40 (NP-40), as well as protease and phosphatase inhibitor cocktails (GenDEPOT, Barker, TX). Equal amounts of protein were separated by 10% sodium dodecyl sulfate-polyacrylamide gel electrophoresis (SDS-PAGE) and transferred onto the polyvinylidene fluoride (PVDF) membranes (Millipore, Bedford, MA). Immunostaining was performed by incubating the blots with primary antibodies, followed by horseradish peroxidase (HRP)-conjugated secondary antibody and detected with an enhanced chemiluminescence (ECL) plus system (Amersham Biosciences, Piscataway, NJ). […]
The SkBr3 cells were plated on 18-mm cover glasses in DMEM medium and incubated for 24 h so that approximately 70% confluence was reached. […] The stained cells were examined for a fluorescence of nuclear fragmentation. […]

T1 sequence (P42336 whole entry): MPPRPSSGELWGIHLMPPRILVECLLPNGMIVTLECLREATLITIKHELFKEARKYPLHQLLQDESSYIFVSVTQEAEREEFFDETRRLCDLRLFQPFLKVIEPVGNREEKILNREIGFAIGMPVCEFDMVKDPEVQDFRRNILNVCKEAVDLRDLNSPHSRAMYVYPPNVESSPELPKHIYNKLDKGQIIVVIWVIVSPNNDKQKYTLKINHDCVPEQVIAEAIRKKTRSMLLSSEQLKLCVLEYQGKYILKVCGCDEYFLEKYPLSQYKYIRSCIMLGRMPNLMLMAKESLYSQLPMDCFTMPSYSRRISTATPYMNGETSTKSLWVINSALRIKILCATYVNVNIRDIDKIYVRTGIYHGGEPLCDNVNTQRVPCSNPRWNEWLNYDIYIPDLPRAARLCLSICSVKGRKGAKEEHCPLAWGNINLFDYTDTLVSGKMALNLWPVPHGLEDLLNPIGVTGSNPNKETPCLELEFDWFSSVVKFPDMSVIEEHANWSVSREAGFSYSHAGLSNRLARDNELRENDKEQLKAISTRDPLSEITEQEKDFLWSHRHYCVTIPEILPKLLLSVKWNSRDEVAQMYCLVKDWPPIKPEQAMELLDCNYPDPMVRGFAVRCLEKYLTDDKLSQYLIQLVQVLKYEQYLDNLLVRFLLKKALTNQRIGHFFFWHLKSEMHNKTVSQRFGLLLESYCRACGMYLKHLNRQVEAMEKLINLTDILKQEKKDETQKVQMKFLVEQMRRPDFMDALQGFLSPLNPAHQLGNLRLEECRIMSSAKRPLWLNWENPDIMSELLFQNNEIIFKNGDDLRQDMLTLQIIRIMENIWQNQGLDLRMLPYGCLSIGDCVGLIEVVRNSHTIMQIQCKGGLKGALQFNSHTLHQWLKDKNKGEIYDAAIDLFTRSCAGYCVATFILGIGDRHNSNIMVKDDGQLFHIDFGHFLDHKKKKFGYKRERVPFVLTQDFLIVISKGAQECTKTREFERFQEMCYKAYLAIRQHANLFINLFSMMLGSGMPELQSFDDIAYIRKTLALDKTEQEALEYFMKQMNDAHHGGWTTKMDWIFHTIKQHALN
T1 sequence (P27986 whole entry partner): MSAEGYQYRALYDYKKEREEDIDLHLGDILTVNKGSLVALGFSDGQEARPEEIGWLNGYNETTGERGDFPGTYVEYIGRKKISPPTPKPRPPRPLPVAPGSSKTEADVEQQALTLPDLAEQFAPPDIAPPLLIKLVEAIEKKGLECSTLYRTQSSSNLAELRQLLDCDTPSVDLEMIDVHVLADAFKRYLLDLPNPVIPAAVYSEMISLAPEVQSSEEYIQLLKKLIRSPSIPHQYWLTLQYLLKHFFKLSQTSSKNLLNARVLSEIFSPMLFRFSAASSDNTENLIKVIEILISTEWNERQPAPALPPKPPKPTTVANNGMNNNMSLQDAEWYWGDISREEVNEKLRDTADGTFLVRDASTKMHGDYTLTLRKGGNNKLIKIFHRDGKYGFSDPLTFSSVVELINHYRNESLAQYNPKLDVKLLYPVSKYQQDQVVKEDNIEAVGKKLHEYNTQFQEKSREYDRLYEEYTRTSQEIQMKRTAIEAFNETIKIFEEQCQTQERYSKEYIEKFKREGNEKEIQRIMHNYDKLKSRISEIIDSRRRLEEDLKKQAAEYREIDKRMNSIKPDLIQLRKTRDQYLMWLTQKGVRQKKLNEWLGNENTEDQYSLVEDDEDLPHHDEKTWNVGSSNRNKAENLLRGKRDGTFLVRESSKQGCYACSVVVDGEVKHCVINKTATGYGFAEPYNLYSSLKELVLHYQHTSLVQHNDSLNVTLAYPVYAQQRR

Tmax ([3]; ICR, po, 5 mg/kg, p.o. 5 mg/kg): ~4.8 h
AUC(0-inf) ([3]; iv, i.v. 5 mg/kg): 3410 ng·h/mL
MRT ([3]; iv, i.v. 5 mg/kg): 8.2 ± 0.8 h
clearance ([3]; iv, i.v. 5 mg/kg): 24.7 mL/min/kg
AUC(0-t) ([3]; iv, i.v. 5 mg/kg): 3190 ng·h/mL
half-life ([3]; iv, i.v. 5 mg/kg): 6.4 ± 0.92 h
Vd ([3]; iv, i.v. 5 mg/kg, read-out: Vss): 12 L/kg
bioavailability ([3]; oral, p.o. vs i.v. 5 mg/kg, read-out: F (bioavailability)): 95.6%
AUC(0-inf) ([3]; po, p.o. 5 mg/kg): 3260 ng·h/mL
Cmax ([3]; po, p.o. 5 mg/kg): 236 ± 34 ng/mL
MRT ([3]; po, p.o. 5 mg/kg): 9.5 ± 1.9 h
AUC(0-t) ([3]; po, p.o. 5 mg/kg): 3000 ng·h/mL
half-life ([3]; po, p.o. 5 mg/kg): 6.1 ± 1.4 h
EC50 ([4]; Fig. 2A, read-out: EC50 (printed in Fig. 2A), inhibitory activity against PI3Kα in vitro): 992 nM
IC50 ([4]; radiometric kinase assay, read-out: IC50 against PI3Kα): 992 nM
SMILES: CC(=O)Nc1ccc(-c2nc3c(c(=O)n(C)c(=O)n3C)n2-c2cccc(F)c2)cc1 [HS-133, N-(4-(7-(3-Fluorophenyl)-1,3-dimethyl-2,6-dioxo-2,3,6,7-tetrahydro-1H-purin-8-yl)phenyl) acetamide]
tumor volume and weight ([1]; intratumoral 5 mg/kg, 2 times per week, 19 days): remarkably reduced
reduction of average tumor volume compared to control mice ([1]; oral 10 mg/kg daily for 21 days): about 50%
body weight change in tumor-bearing mice ([1]; same dose, SkBr3 xenograft mice): no significant change
capillary tube formation [2]: inhibited the formation of vessel-like structures
induction of apoptosis (cleavage of PARP and caspases, Bax, TUNEL) [5]: could induce apoptosis
